Source: US20100081637A1, “Eczema treatment with vitamin D and analogs thereof method, composition and cream” (Innovia Skincare Corp., priority 2008, published 2010)

Legend:
phosphate transport = details: cited from earlier work; for influence of presence or absence of luminal Ca on phosphate transport: vascular perfusion, 65 pM 1,25-dihydroxyvitamin D3 or 6.5 nM 24,25-dihydroxyvitamin D3
pruritus = experiment: Dose response of pruritus scores against vitamin D concentration (the FIGURE); format: in vivo, human; details: topical application; read from the dose response graph
Text: The FIGURE is a graph illustrating the dose response experimental data in terms of pruritus scores on the vertical scale and a vitamin D concentration in international units per gram (IU/g) on the horizontal scale, with up to four different timing parameters represented by adjacent differentiated bars for each concentration. Pruritus relief is the fastest observed benefit after topical application of our claimed formulations. The graph below indicates an effective concentration as low as 50 IU/g. This is also an indication of bioavailability of vitamin D and therefore an indication of the lowest effective concentration for the treatment of additional symptoms of eczema.

phosphate metabolism = details: Cross and Peterlik 1981; cited from earlier work
atopic dermatitis = experiment: Topical vitamin D cream in eczema / atopic dermatitis patients, case reports (Examples 1-6); details: for effect of prior treatment on itch / effect of prior treatment on redness: prior treatments of the Example 3 patient, per parent
Text: Person, diagnosed with atopic dermatitis. […] Prior treatments consisted of:
We apply the cream after bathing, before bedtime, and during the night, when needed for itching. […]
Adult […]. […] A vitamin D (400 IU/g) cream was applied. […]

[1] = system: lesions from atopic dermatitis; details: five patients; calcipotriol 50 ug/g and maxacalitriol 25 ug/g, ointment; cited from earlier work

SMILES: C=C1/C(=C\C=C2/CCC[C@]3(C)[C@@H]([C@H](C)CCCC(C)(C)O)CC[C@@H]23)C[C@@H](O)C[C@@H]1O [1,25-dihydroxyvitamin D3]
- influence of presence or absence of luminal Ca on phosphate transport (phosphate transport): did not influence

SMILES: C=C1CC[C@H](O)C/C1=C/C=C1\CCC[C@]2(C)[C@@H]([C@H](C)CCCC(C)(C)O)CC[C@@H]12 [25-hydroxyvitamin D3]
- stimulation of phosphate transport relative to the normal concentration (100 nM) (phosphate transport; subnormal concentration (20 nM)): much higher rates
- phosphate transport, luminal Ca present (phosphate transport; vascular perfusion with 100 nM 25-hydroxyvitamin D3): stimulated

SMILES: C=C1CCC(O)C/C1=C\C=C1\CCCC2(C)C1CCC2C(C)CCC(O)C(C)(C)O (stereo not drawn) [24,25-dihydroxyvitamin D3]
- influence of presence or absence of luminal Ca on phosphate transport (phosphate transport): did not influence

SMILES: C=C1CC[C@H](O)C/C1=C/C=C1\CCC[C@]2(C)[C@@H]([C@H](C)CCCC(C)C)CC[C@@H]12 [vitamin D, cholecalciferol]
- lowest effective concentration for pruritus relief (pruritus): 50 IU/g
- activity with respect to phosphate metabolism (phosphate metabolism): active

SMILES: Cl.OCCOCCN1CCN(C(c2ccccc2)c2ccc(Cl)cc2)CC1 (stereo not drawn) [Hydroxyz Hcl 10 mg]
- sleepiness under prior treatment (atopic dermatitis; human, in vivo): made their sleepy
- effect of prior treatment on itch (atopic dermatitis): did not help

SMILES: CC(=O)OCC(=O)[C@@]12OC(C)(C)O[C@@H]1C[C@H]1[C@@H]3C[C@H](F)C4=CC(=O)C=C[C@]4(C)[C@@]3(F)[C@@H](O)C[C@@]12C [Fluocinonide 0.05%, Fluocinonide]
- effectiveness of prior treatment (atopic dermatitis; prior treatment of the Example 5 patient, self-reported): fairly effective

SMILES: C=C1/C(=C\C=C2/CCC[C@]3(C)[C@@H]([C@H](C)/C=C/[C@@H](O)C4CC4)CC[C@@H]23)C[C@@H](O)C[C@@H]1O [calcipotriol]
- effect on lesions from atopic dermatitis [1]: improvement of lesions

SMILES: CCCCC(=O)O[C@]1(C(=O)CO)CC[C@H]2[C@@H]3CCC4=CC(=O)CC[C@]4(C)[C@H]3[C@@H](O)C[C@@]21C [Hydrocort Val 02%]
- effect of prior treatment on itch (atopic dermatitis): did not help
- effect of prior treatment on redness (atopic dermatitis): did not help

SMILES: C=C1/C(=C\C=C2/CCC[C@]3(C)[C@@H]([C@H](C)OCCC(C)(C)O)CC[C@@H]23)C[C@@H](O)C[C@@H]1O [maxacalitriol]
- effect on lesions from atopic dermatitis [1]: improvement of lesions

SMILES: CC1(C)O[C@@H]2C[C@H]3[C@@H]4CCC5=CC(=O)C=C[C@]5(C)[C@H]4[C@@H](O)C[C@]3(C)[C@]2(C(=O)CO)O1 [Desonide 0.5%, Desonide]
- effect of prior treatment on itch (atopic dermatitis): gives itch relief
- effect of prior treatment on redness (atopic dermatitis): reduces redness
